Data on four sequences can be found in patent publication US20180133327A1, “Cell Penetrating Peptides and Complexes Comprising the Same” (Amal Therapeutics SA, priority 2015, published 2018).

One assay relates to EG7-OVA tumor cells. The assay can be described thus: Therapeutic effect of ZEBRA CPP truncation-based vaccines in the EG.7-OVA s.c. model. The format is in vivo, C57BL/6 mice. The note with it: 10 nmol ZxxOVACD8CD4 and 20 μg MPLA s.c. at d5, d13 and d21 after tumor implantation. How it is done:
C57BL/6 mice were implanted s.c. with 3×10^5 EG7-OVA tumor cells in the left flank and vaccinated three times (d5, d13 and d21) by s.c. injection of 10nmoles of Z-truncOVACD8CD4 peptides and 20 μg of MPLA in the right flank. Tumor size was measured with a caliper. […] B, D and F: survival curve of 7 mice per group. Median survival is indicated on the graph (m.s.). *, p<0.05; **, p<0.01; ***, p<0.001; ****, p<0.0001 (Log-Rang test).
To investigate the effects of different ZEBRA CPP truncation-based vaccines on tumor growth and survival, the effects of the constructs Z13OVACD8CD4, Z14OVACD8CD4, Z15OVACD8CD4 and Z18OVACD8CD4 (as described in Examples 4 and 6) were investigated in the EG.7-OVA s.c. model. On d0, C57BL/6 mice were implanted s.c. with 3×10^5 EG7-OVA tumor cells in the left flank and assigned to five different groups (control, Z13OVACD8CD4, Z14OVACD8CD4, Z15OVACD8CD4 and Z18OVACD8CD4). Mice were vaccinated three times (namely, at d5, d13 and d21 after tumor implantation) by s.c. injection of either 10 nmol of Z13OVACD8CD4, Z14OVACD8CD4, Z15OVACD8CD4 or Z18OVACD8CD4 and 20μg of MPLA in the right flank. Tumor size was measured with a caliper.

The subject of assay [1] is IFN-γ-producing OVA257-264-specific CD8 T cells. Nature of the assay: Vaccination with ZEBRA CPP truncation constructs plus TLR agonist adjuvant, IFN-γ Elispot on spleen cells, CD8. The format is in vivo, mice. How it is done: Mice were vaccinated three times (wk0, wk2 and wk9) by s.c. injection (right flank) of 10 nmoles of OVACD8CD4 (the cargo without Zebra CPP truncation), Z13OVACD8CD4, Z14OVACD8CD4, Z15OVACD8CD4, Z18OVACD8CD4 and i.m. injection of 50 μg of Hiltonol (right hind leg). One week after the last vaccination, Elispot assay was performed on spleen cells for detecting IFN-y-producing OVA257-264-specific CD8 T cells (A) and OVA323-339-specific CD4 T cells (B). *, p<0.05; **, p<0.01.
Mice were vaccinated three times (wk0, wk2 and wk9) by s.c. injection (right flank) of 10 nmoles of OVACD8CD4 (the cargo without Zebra CPP truncation), Z13OVACD8CD4, Z14OVACD8CD4, Z15OVACD8CD4 or Z18OVACD8CD4 and 20 μg of Pam3CSK4. One week after the last vaccination, Elispot assay was performed on spleen cells for detecting IFN-γ-producing OVA257-264-specific CD8 T cells (A) and OVA323-339-specific CD4 T cells (B). *, p<0.05; **, p<0.01.
Mice were vaccinated three times (wk0, wk2 and wk9) by s.c. injection (right flank) of 10 nmoles of Z13OVACD8CD4, Z15OVACD8CD4 or Z18OVACD8CD4 and 20 μg of MPLA. One week after the last vaccination, Elispot assay was performed on spleen cells for detecting IFN-γ-producing OVA257-264-specific CD8 T cells (A) and OVA323-339-specific CD4 T cells (B). *, p<0.05; **, p<0.01.
To extend the previous findings to in vivo vaccination, Z13, Z14, Z15 and Z18 conjugated to antigenic cargo containing both CD8 and CD4 T cell epitopes from OVA (as described in Example 4 for Z13, Z15 and Z18) was synthesized. For Z14 the construct was as follows:
Firstly, those constructs were tested with Hiltonol adjuvant (a TLR3 agonist). […] The number of peptide-specific IFN-γ-producing cells was calculated by subtracting the number of IFN-γ-secreting cells cultured without peptide to that obtained with cells cultured with peptide. […]

For “KRYKNRVASRKSRAKFK (CPP Z15) [ZEBRA CPP truncation]”, in the assay with EG7-OVA tumor cells, the survival time result is “only slight” and the tumor volume entry is reported as “only slight”. For the same sequence, in assay [1] (10 nmol ZxxOVACD8CD4 s.c. wk0, wk2, wk9, Hiltonol, Pam3CSK4 or MPLA), the “CD8 T cell immune responses, for any adjuvant” value is recorded as “low CD8 T cell immune responses”.

For KRYKNRVASRKSRAKFKQLLQHYREVAAAK [Z14], in the assay with EG7-OVA tumor cells, the survival time result was “much more pronounced and highly significant”; the tumor volume result is “much more pronounced and highly significant”.

Turning to “KRYKNRVASRKSRAKFKQLLQHYREVAAAKSSENDRLRLLLK [Z13]”, in the assay on EG7-OVA tumor cells, the survival time result was “much more pronounced and highly significant”; the tumor volume entry is “much more pronounced and highly significant”. In assay [1] (10 nmol ZxxOVACD8CD4 s.c. wk0, wk2, wk9 and 20 μg MPLA (TLR4 agonist)), the “CD8 immune response, combined with MPLA” value is “most efficacious”.

Turning to REVAAAKSSENDRLRLLLK [Z18], in the assay with EG7-OVA tumor cells, the survival time result is given as “only slight” and the tumor volume entry was “only slight”. Moreover, the “CD8 immune response, combined with Pam3CSK4” value in assay [1] (10 nmol ZxxOVACD8CD4 s.c. wk0, wk2, wk9 and 20 μg Pam3CSK4 (TLR2 agonist)) was “highest CD8 and CD4 immune response”.
